The subject of data set [1] is NCI-H441 xenograft tumors. Kind of data set: Antitumor efficacy in NCI-H441 xenograft model, Study 2. Format: in vivo, female Hsd athymic nude mice. The source says: (§1) Grow the human NSCLC line NCI-H441 or NCI-H2122 in RPMI 1640 medium+10% fetal bovine serum. Harvest sub-confluent cells with trypsin and rinse twice with growth medium without serum. For subcutaneous tumors, initiate growth by subcutaneous injection of 5×10^6 cells in a 1:1 mixture of Hank's balanced salt solution (HBSS) and Matrigel (BD Bioscience, Franklin Lakes, N.J.) in the rear flank of each subject animal. When mean tumors volumes reach approximately 150-200 mm^3 in size, randomize the animals by tumor size and body weight by randomization techniques well known in the art and place into their respective treatment groups using the number of animals per group as indicated.
(§2) Capture tumor size and body weight using Web Director. Estimate tumor volume (V) by using the formula: V=0.536L×W^2 where L=larger of measured diameter and W=smaller of perpendicular diameter. Transform the tumor volume data to a log scale to equalize variance across time and treatment groups. Analyze the log volume data with a two-way repeated measures analysis of variance by time and treatment using the MIXED procedures in SAS software (Version 9.3). The correlation model for the repeated measures is Spatial Power. Compare treated groups compared to the control group at each time point. Use the MIXED procedure also separately for each treatment group to calculate adjusted means and standard errors at each time point. Both analyses account for the autocorrelation within each animal and the loss of data that occurred when animals with large tumors were removed from the study early. Plot the adjusted means and standard errors for each treatment group versus time. Calculate relative changes in tumor volume (% T/C) using the tumor volume measurements taken nearest to the last day of dosing with Compound A, whereas the baseline tumor volume is the volume recorded on or just prior to first day of dosing. Calculate % T/C values using the formula % T/C=100×ΔT/ΔC, whereby T=mean tumor volume of the compound treated group, ΔT=mean tumor volume of the compound treated group minus the mean tumor volume on the baseline day, C=mean tumor volume of the control (vehicle) group, and ΔC=mean tumor volume of the control group minus the mean tumor volume on the baseline day. Tumor growth inhibition is observed in those instances where the calculated values for % T/C are less than 100% whereby greater inhibition results in smaller % T/C values. If ΔT was <0, then a tumor regression value was calculated instead of % T/C whereby % Regression=100×ΔT/Tinitial such that Tinitial=the grand mean of the tumor volume for all the treatment groups. Any negative values for % T/C listed are values for % Regression.
(§3) Assess antitumor efficacy of the combination of DC101 and Compound A by measuring tumor volume by three dimensional caliper measurements twice a week during the course of the study. Measure body weight twice weekly during the course of the study, as a general indicator of tolerability.
Formulations for Compound A and DC101: Formulate Compound A on a weekly basis in 1% hydroxyethyl cellulose (HEC) in 25 mM phosphate buffer (PB) at a pH of 2 and store at 4° C. Solubilize DC101 in phosphate buffered saline and store at 4° C.
Control Group: administer to the animals in the control group, both vehicles used for Compound A and DC101 according to the same schedules for each compound, respectively.
For the monotherapy groups, treat the animals with the desired compound as directed and with the vehicle for the compound not being dosed by following the schedule for the non-dosed compound.
Treat female Hsd athymic nude mice (n=7) bearing NCI-H441 xenograft tumors with Compound A by oral gavage (PO) once daily for 28 days at a dose of 50 or 75 mg/kg using 0.2 mL/dose. Administer Compound A starting after the mean tumor volumes reach approximately 150-200 mm^3 in size (day 36 after tumor implantation) and end treatment 28 days later (on day 63). […]

Data set [2] can be described thus: Body weight (tolerability), NCI-H441 xenograft Study 2. Format: in vivo, female Hsd athymic nude mice. The procedure: as §3
Treat female Hsd athymic nude mice (n=7) bearing NCI-H441 xenograft tumors with Compound A by oral gavage (PO) once daily for 28 days at a dose of 50 or 75 mg/kg using 0.2 mL/dose. Administer Compound A starting after the mean tumor volumes reach approximately 150-200 mm^3 in size (day 36 after tumor implantation) and end treatment 28 days later (on day 63). Measure tumor volume and body weight twice a week for the duration of the treatment period.
Treat female Hsd athymic nude mice (n=7) bearing NCI-H441 xenograft tumors with DC101 twice weekly for four weeks by intraperitoneal injection at a dose 20 mg/kg. Administer DC101 starting after the mean tumor volumes reach approximately 150-200 mm^3 in size (day 36 after tumor implantation). Measure tumor volume and body weight twice a week for the duration of the treatment period.
Treat female Hsd athymic nude mice (n=7) bearing NCI-H441 xenograft tumors with Compound A by oral gavage once daily for 28 days at a dose of 50 mg/kg or 75 mg/kg using 0.2 mL/dose and intraperitoneal inject DC101 twice weekly at a dose of 20 mg/kg. […]

The test system of data set [3] is NCI-H2122 xenograft tumors. Kind of data set: Antitumor efficacy in NCI-H2122 xenograft model. The note with it: Day 45. Format: in vivo, female Hsd athymic nude mice.
Description: as §1
Capture tumor size and body weight using Web Director. Estimate tumor volume (V) by using the formula: V=0.536L×W^2 where L=larger of measured diameter and W=smaller of perpendicular diameter. Transform the tumor volume data to a log scale to equalize variance across time and treatment groups. […] Calculate relative changes in tumor volume (% T/C) using the tumor volume measurements taken nearest to the last day of dosing with Compound A, whereas the baseline tumor volume is the volume recorded on or just prior to first day of dosing. […] Tumor growth inhibition is observed in those instances where the calculated values for % T/C are less than 100% whereby greater inhibition results in smaller % T/C values. […]

Data set [4] in a line: Body weight (tolerability), NCI-H441 xenograft Study 1. Conditions: baseline (day 14) versus day 42. It is filed as in vivo, female Hsd athymic nude mice. The protocol: as §3
Treat female Hsd athymic nude mice (n=8) bearing NCI-H441 xenograft tumors with Compound A by oral gavage once daily for 28 days at a dose of 50 or 100 mg/kg using 0.2 mL/dose. Administer Compound A starting after the mean tumor volumes reach approximately 150-200 mm^3 in size (day 15 after tumor implantation) and end treatment 28 days later (on day 42). Measure tumor volume and body weight twice a week for the duration of the treatment period.
Treat female Hsd athymic nude mice (n=8) bearing NCI-H441 xenograft tumors with DC101 twice weekly for four weeks by intraperitoneal injection at doses of 10, 20 or 40 mg/kg. Administer DC101 starting after the mean tumor volumes reach approximately 150-200 mm^3 in size (day 15 after tumor implantation) and end on day 39. Measure tumor volume and body weight twice a week for the duration of the treatment period.
Treat female Hsd athymic nude mice (n=8) bearing NCI-H441 xenograft tumors with Compound A by oral gavage once daily for 28 days at a dose of 50 mg/kg using 0.2 mL/dose and intraperitoneal inject DC101 twice weekly at a dose of 20 mg/kg. […]

A short description of data set [5]: Body weight (tolerability), NCI-H2122 xenograft study. It is filed as in vivo, female Hsd athymic nude mice. The note with it: Compound A 50 or 75 mg/kg monotherapy. The protocol:
as §3
Treat female Hsd athymic nude mice (n=8) bearing NCI-H2122 xenograft tumors with Compound A by oral gavage (PO) once daily for 28 days at a dose of 50 or 75 mg/kg using 0.2 mL/dose. Administer Compound A starting after the mean tumor volumes reach approximately 150-200 mm^3 in size (day 16 after tumor implantation) and end treatment on day 43. Measure tumor volume and body weight twice a week for the duration of the treatment period.
Treat female Hsd athymic nude mice (n=8) bearing NCI-H2122 xenograft tumors with DC101 by intraperitoneal injection at a dose 20 mg/kg. Administer DC101 starting after the mean tumor volumes reach approximately 150-200 mm^3 in size (day 16 after tumor implantation) and continue twice weekly for four weeks. Measure tumor volume and body weight twice a week for the duration of the treatment period.
Treat female Hsd athymic nude mice (n=8) bearing NCI-H2122 xenograft tumors with Compound A by oral gavage (PO) once daily for 28 days at a dose of 50 or 75 mg/kg using 0.2 mL/dose and intraperitoneal inject DC101 twice weekly at a dose of 20 mg/kg. […]

In data set [6] the test system is NCI-H441 xenograft tumors. As to the kind of experiment: Antitumor efficacy in NCI-H441 xenograft model, Study 1. Format: in vivo, female Hsd athymic nude mice.
Description: as §1
as §2, with “Regression. […]” for “Regression.”

The test system of the next data set is Stage IV NSCLC. Kind of data set: Phase 1b study of abemaciclib in combination with ramucirumab, tumor response. It is filed as in vivo, human. Set-up: key: PR is partial response;; SD is stable disease;; PD is progressive disease;; NDR is no data reported. Conditions: preliminary. The procedure: This study is a multicenter, nonrandomized, open-label, dose-escalation Phase 1b study of oral dosing of [5-(4-ethyl-piperazin-1-ylmethyl)-pyridin-2-yl]-[5-fluoro-4-(7-fluoro-3-isopropyl-2-methyl-3H-benzoimidazol-5-yl)-pyrimidin-2-yl]-amine at 100 mg, 150 mg, or 200 mg every 12 (±3) hours on Days 1 through 21 of a 21-day cycle. in combination with ramucirumab administered at 10 mg/kg over a 60-minute IV infusion followed by a 1-hour observation period on Day 1 of a 21-day cycle for patients with Stage IV NSCLC.
The primary objective of this study is to evaluate the safety and tolerability of [5-(4-ethyl-piperazin-1-ylmethyl)-pyridin-2-yl]-[5-fluoro-4-(7-fluoro-3-isopropyl-2-methyl-3H-benzoimidazol-5-yl)-pyrimidin-2-yl]-amine when administered orally in combination with ramucirumab to patients with Stage IV NSCLC using Common Terminology Criteria for Adverse Events (CTCAE version 4.0, NCI 2009).
The secondary objectives of the study are to document the antitumor activity of [5-(4-ethyl-piperazin-1-ylmethyl)-pyridin-2-yl]-[5-fluoro-4-(7-fluoro-3-isopropyl-2-methyl-3H-benzoimidazol-5-yl)-pyrimidin-2-yl]-amine when given in combination with ramucirumab; to determine the pharmacokinetics (PK) of [5-(4-ethyl-piperazin-1-ylmethyl)-pyridin-2-yl]-[5-fluoro-4-(7-fluoro-3-isopropyl-2-methyl-3H-benzoimidazol-5-yl)-pyrimidin-2-yl]-amine when given in combination with ramucirumab; and to characterize changes in patient-reported pain and disease-related symptoms collected via the MD Anderson Symptom Inventory-Lung Cancer (MDASI-LC).
[5-(4-Ethyl-piperazin-1-ylmethyl)-pyridin-2-yl]-[5-fluoro-4-(7-fluoro-3-isopropyl-2-methyl-3H-benzoimidazol-5-yl)-pyrimidin-2-yl]-amine is supplied as capsules at 100 mg, 150 mg, or 200 mg for oral administration.
Ramucirumab is supplied in a sterile, preservative-free solution for infusion of ramucirumab formulated in an aqueous solution at a concentration of […] (500 mg/50-mL vial). The buffer contains 10 mM histidine, 75 mM sodium chloride, 133 mM glycine, and 0.01% polysorbate 80, pH 6.0. Ramucirumab is supplied in single-use 50-mL nominal volume glass vials.
The first dose of ramucirumab is dependent upon the patient's baseline body weight in kilograms. Subsequent doses of ramucirumab must be recalculated if there is a ≥10% change (increase or decrease) in body weight from last dose calculation; subsequent doses may be recalculated if there is a <10% change (increase or decrease) in body weight from last dose calculation.

The mark [7] stands for this setting: Compound A 50 mg/kg monotherapy.
Where [8] appears, read: Compound A 75 mg/kg monotherapy.
The mark [9] stands for this setting: Compound A 50 mg/kg monotherapy, end of treatment period.
[10] abbreviates: abemaciclib 150 mg every 12 hours + ramucirumab 10 mg/kg IV Day 1 of 21-day cycle, individual patients 1-3.
The mark [11] stands for this setting: abemaciclib 200 mg every 12 hours + ramucirumab 10 mg/kg IV Day 1 of 21-day cycle, individual patients 4-8.

These results are taken from US10238656B2, “Combination therapy for cancer” (Eli Lilly and Company, priority 2014, dated 2019).

Values joined by “and” are separate entries in the source; they are usually repeats but may differ in a detail not shown here. Equal entries are not always repeated.

For the compound `CCN1CCN(Cc2ccc(Nc3ncc(F)c(-c4cc(F)c5nc(C)n(C(C)C)c5c4)n3)nc2)CC1.CS(=O)(=O)O` [Compound A, [5-(4-Ethyl-piperazin-1-ylmethyl)-pyridin-2-yl]-[5-fluoro-4-(7-fluoro-3-isopropyl-2-methyl-3H-benzoimidazol-5-yl)-pyrimidin-2-yl]-amine methanesulfonate], the “% T/C” value in data set [1] (Compound A 50 mg/kg PO once daily 28 days, Day 67) is given as 7.0%; in data set [3] (Compound A 50 mg/kg PO once daily 28 days) it was 64.3%; in data set [3] (Compound A 75 mg/kg PO once daily 28 days), 37.3%. The “combined frequency for stable disease and partial response (disease control rate)” value in data set [1] (setting [7]) is given as 4/7; in data set [1] (setting [8]), 6/7. In addition, the figures for the “mice achieving complete regression” value in data set [1] (setting [7]) and in data set [1] (setting [8]) were 2/7 and 3/7, respectively. For the same compound, in data set [1] (Compound A 75 mg/kg PO once daily 28 days, Day 67), the regression is −4.8%. Besides, the “maximum relative body weight loss” value in data set [2] (setting [7]) came to 5.5%; in data set [2] (setting [8]) it was 5.1%; in data set [4] (Compound A 50 mg/kg), 2.7%; in data set [4] (Compound A 100 mg/kg), 4.7%. In addition, the “changes in relative body weight” value in data set [5] is on record as “not statistically different from the control group”. In addition, the “partial response (animals)” value is recorded as 6/8 in data set [6] (setting [9]) and 8/8 in data set [6] (Compound A 100 mg/kg monotherapy, end of treatment period). Besides, the “stable disease (animals)” value in data set [6] (setting [9]) was 2/8. Moreover, the mean percent regression in data set [6] (Compound A 100 mg/kg oral gavage once daily 28 days, study day 42) is recorded as −22.8%.
For the compound `CCN1CCN(Cc2ccc(Nc3ncc(F)c(-c4cc(F)c5nc(C)n(C(C)C)c5c4)n3)nc2)CC1` [abemaciclib, [5-(4-Ethyl-piperazin-1-ylmethyl)-pyridin-2-yl]-[5-fluoro-4-(7-fluoro-3-isopropyl-2-methyl-3H-benzoimidazol-5-yl)-pyrimidin-2-yl]-amine], in the data set with Stage IV NSCLC (setting [10]), the “Overall Response” value was “SD and PR and PD”; the “Target Response” value is “SD and PR”. Further, in the data set with Stage IV NSCLC (setting [11]), the “Overall Response” value was “SD (3×) and PD and PR”; the “Target Response” value was “SD (2×) and PD and PR”.
